According to US7253285B2, “Thiazolinone 4-monosubstituted quinolines” (Hoffmann-La Roche Inc., priority 2004, dated 2007):
Structures can show the parent of a compound that is named as a salt.

Target: T1, recombinant human CDK1/Cyclin B complex (Homo sapiens, UniProt P06493)
T1 construct: made in house; host or cells: High Five insect cells (baculovirus) for CDK1/GST-cyclin B; E. coli M15 for the Rb substrate
T1 sequence (P06493 whole entry): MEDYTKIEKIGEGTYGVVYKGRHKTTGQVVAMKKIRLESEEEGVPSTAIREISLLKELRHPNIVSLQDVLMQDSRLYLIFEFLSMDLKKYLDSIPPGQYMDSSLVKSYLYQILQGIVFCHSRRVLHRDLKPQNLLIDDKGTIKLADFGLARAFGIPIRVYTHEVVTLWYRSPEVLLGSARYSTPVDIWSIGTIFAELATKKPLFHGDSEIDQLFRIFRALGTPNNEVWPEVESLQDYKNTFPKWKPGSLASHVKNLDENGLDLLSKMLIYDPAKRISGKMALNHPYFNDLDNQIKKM
T1 sequence (P14635 whole entry partner): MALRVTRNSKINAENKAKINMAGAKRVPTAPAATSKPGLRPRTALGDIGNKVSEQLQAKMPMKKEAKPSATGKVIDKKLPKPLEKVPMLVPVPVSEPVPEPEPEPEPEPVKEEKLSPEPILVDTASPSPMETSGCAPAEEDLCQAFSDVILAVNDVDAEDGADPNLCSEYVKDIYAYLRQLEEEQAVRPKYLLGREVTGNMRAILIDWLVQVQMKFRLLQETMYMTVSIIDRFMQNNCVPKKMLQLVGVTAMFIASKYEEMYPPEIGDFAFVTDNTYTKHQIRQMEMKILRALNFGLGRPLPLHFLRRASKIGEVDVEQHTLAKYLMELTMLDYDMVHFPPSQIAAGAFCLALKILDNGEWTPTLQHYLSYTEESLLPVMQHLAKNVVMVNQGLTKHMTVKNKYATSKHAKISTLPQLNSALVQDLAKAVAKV
Test: CDK1/Cyclin B kinase assay (FlashPlate or HTRF)
Assay type: biochemical
Conditions: Rb protein substrate, Ki=IC50/(1+[S]/Km)
Experimental: To determine inhibition of CDK1 activity, either FlashPlate™ (NEN™-Life Science Products) assay or HTRF assay was performed. Both types of kinase assays were carried out using recombinant human CDK1/Cyclin B complex. GST-cyclinB (GST-cycB) and CDK1 cDNA clones in baculovirus vectors were provided by Dr. W. Harper at the Baylor College of Medicine, Houston, Tex. Proteins were co-expressed in High Five™ insect cells and the complex was purified on glutathione Sepharose resin (Pharmacia, Piscataway, N.J.) as previously described (Harper, J. W. et al. Cell 1993, 75, 805-816). A 6×-Histidine tagged truncated form of retinoblastoma (Rb) protein (amino acid 386-928) was used as the substrate for the CDK1/Cyclin B assay (the expression plasmid was provided by Dr. Veronica Sullivan, Department of Molecular Virology, Roche Research Centre, Welwyn Garden City, United Kingdom). The Rb protein is a natural substrate for phosphorylation by CDK1 (see Herwig and Strauss Eur. J. Biochem. Vol. 246 (1997) pp. 581-601 and the references cited therein). The expression of the 62 Kd protein was under the control of an IPTG inducible promoter in an M15 E. coli strain. Cells were lysed by sonication and purification was carried out by binding lysates at pH 8.0 to a Ni-chelated agarose column pretreated with 1 mM imidazole. The resin was then washed several times with incrementally decreasing pH buffers to pH 6.0, and eluted with 500 mM imidazole. Eluted protein was dialysed against 20 mM HEPES pH 7.5, 30% glycerol, 200 mM NaCl, and 1 mM DTT. Purified Rb fusion protein stocks were quantitated for protein concentration, aliquoted, and stored at −70° C.
For the FlashPlate kinase assay, 96-well FlashPlates were coated with Rb protein at 10 μg/ml, using 100 μl per well. Plates were incubated at 4° C. overnight or at room temperature for 3 hours on a shaker. To control for nonspecific phosphorylation, one row of wells was coated with 100 μl/well coating buffer (20 mM HEPES, 0.2 M NaCl). Plates were then washed twice with wash buffer (0.01% Tween 20 in phosphate-buffered saline). Compounds to be tested (“test compounds”) were added to the wells at 5× final concentration. Reactions were initiated by immediate addition of 40 μl reaction mix (25 mM HEPES, 20 mM MgCl2, 0.002% Tween 20, 2 mM DTT, 1 μM ATP, 4 nM ^33P-ATP) and a sufficient amount of enzyme to give counts that were at least 10-fold above background. Plates were incubated at room temperature on a shaker for 30 minutes. Plates were washed four times with the wash buffer, sealed, and counted on the TopCount scintillation counter (Packard Instrument Co., Downers Grove, Ill.]. The percent inhibition of Rb phosphorylation, which is a measure of the inhibition of CDK activity, was determined according to the following formula:
[formula] where “test compound” refers to the average counts per minute of the test duplicates, “nonspecific” refers to the average counts per minute when no CDK1/Cyclin B, etc., was added, and “total” refers to the average counts per minute when no compound was added. The IC50 value is the concentration of test compound that reduces by 50% the protein-kinase induced incorporation of the radiolabel under the test conditions described. The value of the inhibitor constant Ki is calculated by the following: Ki=IC50/(1+[S]/Km), where [S] is the ATP concentration and Km is Michaelis constant.
The Homogeneous Time Resolved Fluorescence (HTRF) kinase assay was carried out in 96-well polypropylene plates (BD Biosciences, Bedford, Mass.). Test compounds were first dissolved in DMSO, and then diluted in kinase assay buffer 1 (25 mM HEPES, pH7.0, 8 mM MgCl2, 1.5 mM DTT, and 162 μM ATP) with DMSO concentration at 15%. The CDK1/Cyclin B enzyme was diluted in kinase assay buffer 2 (25 mM HEPES, pH 7.0, 8 mM MgCl2, 0.003% Tween 20, 0.045% BSA, 1.5 mM DTT, and 0.338 μM Rb protein). […]
`CCOc1ccnc2ccc(/C=C3\SC(N[C@H]4C[C@@H]4c4ccccc4)=NC3=O)cc12` [Example 5, 5-(4-Ethoxy-quinolin-6-ylmeth-(Z)-ylidine)-2-((1R,2S)-2-phenyl-cyclopropylamino)-thiazol-4-one] showed a Ki of 39 nM. `O=C1N=C(N[C@H]2C[C@@H]2c2ccccc2)S/C1=C\c1ccc2nccc(OCC3CCCCC3)c2c1` [Example 10, 5-(4-Cyclohexylmethoxy-quinolin-6-ylmeth-(Z)-ylidine)-2-((1R,2S)-2-phenyl-cyclopropylamino)-thiazol-4-one] showed a Ki of 1190 nM. In the case of `O=C1N=C(NCc2cccs2)S/C1=C\c1ccc2nccc(N3CCOCC3)c2c1` [Example 15, 5-(4-Morpholin-4-yl-quinolin-6-ylmeth-(Z)-ylidine)-2-[(thiophen-2-ylmethyl)-amino]-thiazol-4-one], the Ki is reported as 210 nM. Compound `COCCOc1ccnc2ccc(/C=C3\SC(N)=NC3=O)cc12` [Example 20, 2-Amino-5-[4-(2-methoxy-ethoxy)-quinolin-6-ylmeth-(Z)-ylidine]-thiazol-4-one as trifluoroacetate salt] has a Ki of 32 nM. For `NC1=NC(=O)/C(=C/c2ccc3nccc(Oc4ccccc4)c3c2)S1` [Example 25, 2-Amino-5-(4-phenoxy-quinolin-6-ylmeth-(Z)-ylidine)-thiazol-4-one], the Ki was 340 nM. For `CCOc1ccnc2ccc(/C=C3\SC(NCc4cnc(C)cn4)=NC3=O)cc12` [Example 30, 2-[(5-Methyl-pyrazin-2-ylmethyl)-amino]-5-(4-ethoxy-quinolin-6-ylmeth-(Z)-ylidine)-thiazol-4-one], the Ki was 281 nM. `CCSc1ccnc2ccc(/C=C3\SC(N[C@H]4C[C@@H]4c4ccccc4)=NC3=O)cc12` [Example 35, 5-(4-Ethylsulfanyl-quinolin-6-ylmeth-(Z)-ylidine)-2-((1R,2S)-2-phenyl-cyclopropylamino)-thiazol-4-one] gave a Ki of 37.2 nM. With `CCOc1ccnc2ccc(/C=C3\SC(NCCc4cccc(F)c4)=NC3=O)cc12` [Example 40] the Ki was 13 nM.

System: not given
Test: not given
Conditions: not given
With `COc1ccnc2ccc(/C=C3\SC(NCc4cccs4)=NC3=O)cc12` [Example 1, 5-(4-Methoxy-quinolin-6-ylmeth-(Z)-ylidine)-2-[(thiophen-2-ylmethyl)-amino]-thiazol-4-one] the melting point was 258 to 262 °C. `COc1ccnc2ccc(/C=C3\SC(N[C@H]4C[C@@H]4c4ccccc4)=NC3=O)cc12` [Example 2, 5-(4-Methoxy-quinolin-6-ylmeth-(Z)-ylidine)-2-((1R,2S)-2-phenyl-cyclopropylamino)-thiazol-4-one] showed a melting point of 251 to 253 °C. For `CCOc1ccnc2ccc(/C=C3\SC(NCc4cccs4)=NC3=O)cc12` [Example 4, 5-(4-Ethoxy-quinolin-6-ylmeth-(Z)-ylidine)-2-[(thiophen-2-ylmethyl)-amino]-thiazol-4-one], the melting point was 226 to 228 °C. Compound `CCOc1ccnc2ccc(/C=C3\SC(N[C@H]4C[C@@H]4c4ccccc4)=NC3=O)cc12` [Example 5, 5-(4-Ethoxy-quinolin-6-ylmeth-(Z)-ylidine)-2-((1R,2S)-2-phenyl-cyclopropylamino)-thiazol-4-one] has a melting point of 266 to 268 °C. For `O=C1N=C(N[C@H]2C[C@@H]2c2ccccc2)S/C1=C\c1ccc2nccc(OCC3CCCCC3)c2c1` [Example 10, 5-(4-Cyclohexylmethoxy-quinolin-6-ylmeth-(Z)-ylidine)-2-((1R,2S)-2-phenyl-cyclopropylamino)-thiazol-4-one], the melting point was 223 to 227 °C. Work on `O=C1N=C(NCc2cccs2)S/C1=C\c1ccc2nccc(Oc3ccccc3)c2c1` [Example 24, 5-(4-Phenoxy-quinolin-6-ylmeth-(Z)-ylidine)-2-[(thiophen-2-ylmethyl)-amino]-thiazol-4-one] yielded a melting point of 239 to 240.5 °C.
